For four molecules, IC50 results are on record in patent US20070142363A1, “Novel diazabicyclonene derivatives and use thereof” (ACTELION PHARMACEUTICALS LTD, priority 2003, published 2007).

Broadly, the IC50 is the midpoint of a concentration-inhibition curve.

Structures are written as SMILES.

The experiment concerns the target T1, human recombinant renin (Homo sapiens, UniProt P00797).
T1 sequence (P00797 67-406): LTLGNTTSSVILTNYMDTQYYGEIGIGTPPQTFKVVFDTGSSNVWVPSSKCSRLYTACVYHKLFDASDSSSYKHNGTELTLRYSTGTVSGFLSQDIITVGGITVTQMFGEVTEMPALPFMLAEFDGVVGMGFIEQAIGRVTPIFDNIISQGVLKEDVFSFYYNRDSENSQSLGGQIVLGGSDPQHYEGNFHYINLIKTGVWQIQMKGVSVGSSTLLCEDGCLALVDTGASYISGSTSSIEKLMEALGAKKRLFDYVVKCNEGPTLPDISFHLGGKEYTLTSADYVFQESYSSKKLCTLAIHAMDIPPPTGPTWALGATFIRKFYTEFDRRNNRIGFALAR
Kind of experiment: Inhibition of human recombinant renin (enzymatic in vitro assay, Ang I detected by EIA). It is filed as biochemical. The following applies: human recombinant renin 0.16 ng/mL, synthetic human angiotensin(1-14) 0.5 μM, 37° C. for 3 h. As for the experimental part: Inhibition of Human Recombinant Renin by the Compounds of the Invention The enzymatic in vitro assay was performed in 384-well polypropylene plates (Nunc). The assay buffer consisted of 10 mM PBS (Gibco BRL) including 1 mM EDTA and 0.1% BSA. The incubates were composed of 50 μL per well of an enzyme mix and 2.5 μL of renin inhibitors in DMSO. The enzyme mix was premixed at 4° C. and consists of the following components: • human recombinant renin (0.16 ng/mL) * synthetic human angiotensin(1-14) (0.5 μM) • hydroxyquinoline sulfate (1 mM) The mixtures were then incubated at 37° C. for 3 h. To determine the enzymatic activity and its inhibition, the accumulated Ang I was detected by an enzyme immunoassay (EIA) in 384-well plates (Nunc). 5 μL of the incubates or standards were transferred to immuno plates which were previously coated with a covalent complex of Ang I and bovine serum albumin (Ang I—BSA). 75 μL of Ang I-antibodies in essaybuffer above including 0.01% Tween 20 were added and a primary incubation made at 4° C. overnight. The plates were washed 3 times with PBS including 0.01% Tween 20, and then incubated for 2 h at rt with an antirabbit-peroxidase coupled antibody (WA 934, Amersham).
Take `Cc1c(CN(C(=O)C2=C(c3ccc(CCCOc4c(F)ccc(F)c4Cl)cc3)C[C@@H]3CNC[C@H]2N3)C2CC2)ccnc1OCCO` (racemic) [Example 3, (rac.)-(1R*, 5S*)-7-{4-[3-(2-Chloro-3,6-difluorophenoxy)propyl]phenyl}-3,9-diazabicyclo[3.3.1]non-6-ene-6-carboxylic Acid Cyclopropyl-[2-(2-hydroxy-ethoxy)-3-methylpyridin-4-ylmethyl]amide]: the IC50 stood at 0.82 nM.

In the case of `Cc1cc(Cl)c(OCCOc2ccc(C3=C(C(=O)N(Cc4ccnc(OCCCO)c4C)C4CC4)[C@H]4CNC[C@@H](C3)N4)cc2)c(Cl)c1` (racemic) [Example 2, (rac.)-(1R*, 5S*)-7-{4-[2-(2,6-Dichloro-4-methylphenoxy)ethoxy]phenyl}-3,9-diazabicyclo[3.3.1]non-6-ene-6-carboxylic Acid Cyclopropyl-[2-(3-hydroxy-propoxy)-3-methylpyridin-4-ylmethyl]amide], the IC50 turned out to be 0.49 nM.

On to `Cc1c(CN(C(=O)C2=C(c3ccc(CCCOc4c(F)ccc(F)c4Cl)cc3)C[C@@H]3CNC[C@H]2N3)C2CC2)ccnc1OCCCO` (racemic) [Example 1, (rac.)-(1R*, 5S*)-7-{4-[3-(2-Chloro-3,6-difluorophenoxy)propyl]phenyl}-3,9-diazabicyclo[3.3.1]non-6-ene-6-carboxylic Acid Cyclopropyl-[2-(3-hydroxy-propoxy)-3-methylpyridin-4-ylmethyl]amide], for which the IC50 is 1.16 nM.

For `Cc1cc(Cl)c(OCCOc2ccc(C3=C(C(=O)N(Cc4ccnc(OCCO)c4C)C4CC4)[C@H]4CNC[C@@H](C3)N4)cc2)c(Cl)c1` (racemic) [Example 4, (rac.)-(1R*, 5S*)-7-{4-[2-(2,6-Dichloro-4-methylphenoxy)ethoxy]phenyl}-3,9-diazabicyclo[3.3.1]non-6-ene-6-carboxylic Acid Cyclopropyl-[2-(2-hydroxy-ethoxy)-3-methylpyridin-4-ylmethyl]amide], the IC50 turned out to be 1.43 nM.
